Patent US8609858B2, “Spiro derivatives of parthenin as novel anticancer agents” (Council of Scientific & Industrial Research, priority 2008, dated 2013)

Columns and labels:
PC-3 = test: In vitro cytotoxicity screening (sulphodamine B dye), PC-3; format: cell-based; settings: Homo sapiens; PC-3 prostate cancer cell line
Procedure: (§1) Cells at sub confluent stage were harvested from the flask by treatment with trypsin (0.5% in PBS containing 0.02% EDTA) for determination of cytotoxicity. […] The cell suspensions of required cell density were prepared in complete growth medium with gentamycin (50 μg/ml) for determination of cytotoxicity. The cells (100 μl/well) were inoculated in 96 well tissue culture plates. The cells were allowed to grow for 24 hrs temperature of 37° C. and in a humidified atmosphere of 5% CO2 in air. Stock solution of (20 mM) of test material was prepared in DMSO. The stock solution was serially diluted with complete growth medium containing 50 μg/ml of gentamycin to obtain […] working test solutions of 1., 2, 5, 10, 50 and 100 μM.
(§2) The media were supplemented with FCS (10%), penicillin (100 Units/ml), streptomycin (100 μg/ml) and glutamine (2 mM) and cells were grown in CO2 incubator (Hera cell, Heraeus, USA) at 37° C. with 90% humidity and 5% CO2.

SW-620 = test: In vitro cytotoxicity screening (sulphodamine B dye), SW-620; format: cell-based; settings: Homo sapiens; SW-620 colon cancer cell line
Procedure: as §1, §2

DU-145 = test: In vitro cytotoxicity screening (sulphodamine B dye), DU-145; format: cell-based; settings: Homo sapiens; DU-145 prostate cancer cell line
Procedure: as §1, §2

| SMILES | melting point | IC50 (PC-3) | IC50 (SW-620) | IC50 (DU-145) |
| --- | --- | --- | --- | --- |
| COc1ccc(N2CC23C(=O)O[C@@H]2[C@H]3CC[C@H](C)[C@]3(O)C=CC(=O)[C@@]23C)cc1 (some centres unmarked) | 245 to 247 °C | – | – | – |
| Cc1ccc(N2CC23C(=O)O[C@@H]2[C@H]3CC[C@H](C)[C@]3(O)C=CC(=O)[C@@]23C)cc1 (some centres unmarked) | 241 to 242 °C | – | – | – |
| COc1ccc(C2=NOC3(C2)C(=O)O[C@@H]2[C@H]3CC[C@H](C)[C@]3(O)C=CC(=O)[C@@]23C)cc1 (some centres unmarked) [Compound -1] | – | 35 µM | 41 µM | 20 µM |
| C[C@H]1CC[C@@H]2[C@@H](OC(=O)C23CC(c2ccc(Cl)cc2)=NO3)[C@]2(C)C(=O)C=C[C@@]12O (some centres unmarked) [Compound -2] | 138.2 °C | 49 µM | 51 µM | 43 µM |
| C[C@H]1CC[C@@H]2[C@@H](OC(=O)C23CC(c2ccc(N(C)C)cc2)=NO3)[C@]2(C)C(=O)C=C[C@@]12O (some centres unmarked) [Compound -4] | – | 6.33 µM | – | – |
| C[C@H]1CC[C@@H]2[C@@H](OC(=O)C23CC(c2ccc(O)cc2)=NO3)[C@]2(C)C(=O)C=C[C@@]12O (some centres unmarked) [Compound -5] | 129.2 °C | – | 89 µM | 93 µM |
| C[C@H]1CC[C@@H]2[C@@H](OC(=O)C23CC(c2cccc([N+](=O)[O-])c2)=NO3)[C@]2(C)C(=O)C=C[C@@]12O (some centres unmarked) [Compound -11] | – | 55 µM | 49 µM | 51 µM |
| C[C@H]1CC[C@@H]2[C@@H](OC(=O)C23CC(c2cccs2)=NO3)[C@]2(C)C(=O)C=C[C@@]12O (some centres unmarked) [Compound -12] | – | 29 µM | 34 µM | 19 µM |
| Cc1ccccc1C1=NOC2(C1)C(=O)O[C@@H]1[C@H]2CC[C@H](C)[C@]2(O)C=CC(=O)[C@@]12C (some centres unmarked) [Compound -13] | 277 °C | 10 µM | 5 µM | 12 µM |
| Cc1cccc(C2=NOC3(C2)C(=O)OC2C3CC[C@H](C)[C@]3(O)C=CC(=O)[C@@]23C)c1 (some centres unmarked) [Compound -14] | – | 66.6 µM | – | – |
| C[C@H]1CC[C@@H]2[C@@H](OC(=O)C23CC(c2ccc(F)cc2)=NO3)[C@]2(C)C(=O)C=C[C@@]12O (some centres unmarked) [Compound -15] | 193 °C | 27 µM | 3.6 µM | 13 µM |
| C[C@H]1CC[C@@H]2[C@@H](OC(=O)C23CC(c2ccc(C#N)cc2)=NO3)[C@]2(C)C(=O)C=C[C@@]12O (some centres unmarked) [Compound -16] | 147 °C | 32 µM | 53 µM | 26 µM |
| C[C@H]1CC[C@@H]2[C@@H](OC(=O)C23CC(c2ccc(Cl)cc2)N(c2ccccc2)O3)[C@]2(C)C(=O)C=C[C@@]12O (some centres unmarked) [Compound -18] | 183 °C | 7.8 µM | 7.5 µM | 7 µM |
| Cc1ccccc1C1CC2(ON1c1ccccc1)C(=O)O[C@@H]1[C@H]2CC[C@H](C)[C@]2(O)C=CC(=O)[C@@]12C (some centres unmarked) [Compound -19] | 181 °C | 6.4 µM | 6 µM | 5.6 µM |
| C[C@H]1CC[C@@H]2[C@@H](OC(=O)C23CC(c2ccc(Br)cc2)N(c2ccccc2)O3)[C@]2(C)C(=O)C=C[C@@]12O (some centres unmarked) [Compound -20] | 185 °C | 5.8 µM | 6.7 µM | 6.3 µM |
| Cc1ccc(C2CC3(ON2c2ccccc2)C(=O)O[C@@H]2[C@H]3CC[C@H](C)[C@]3(O)C=CC(=O)[C@@]23C)cc1 (some centres unmarked) [Compound -21] | 114 °C | 8.5 µM | 8.7 µM | 8.1 µM |

| SMILES | melting point | IC50 (PC-3) | IC50 (SW-620) | IC50 (DU-145) |
| --- | --- | --- | --- | --- |
| C[C@H]1CC[C@@H]2[C@@H](OC(=O)C23CC(c2ccccc2)N(c2ccccc2)O3)[C@]2(C)C(=O)C=C[C@@]12O (some centres unmarked) [Compound -23] | 170 °C | 5.7 µM | 5.8 µM | 5.6 µM |
| C[C@H]1CC[C@@H]2[C@@H](OC(=O)C23CC(c2ccc(F)cc2)N(c2ccccc2)O3)[C@]2(C)C(=O)C=C[C@@]12O (some centres unmarked) [Compound -24] | 154 °C | 5.7 µM | 7.3 µM | 6.4 µM |
| COc1ccc(C2CC3(ON2c2ccccc2)C(=O)O[C@@H]2[C@H]3CC[C@H](C)[C@]3(O)C=CC(=O)[C@@]23C)cc1Br (some centres unmarked) [Compound -25] | 96 °C | 5.7 µM | 6.8 µM | 6.3 µM |
| C[C@H]1CC[C@@H]2[C@@H](OC(=O)C23CC(c2ccc(C#N)cc2)N(c2ccccc2)O3)[C@]2(C)C(=O)C=C[C@@]12O (some centres unmarked) [Compound -26] | 116 °C | 4.8 µM | 4.8 µM | 5 µM |
| COc1ccc(Br)cc1C1CC2(ON1c1ccccc1)C(=O)O[C@@H]1[C@H]2CC[C@H](C)[C@]2(O)C=CC(=O)[C@@]12C (some centres unmarked) [Compound -27] | 197 °C | 8.2 µM | 6.1 µM | 7.8 µM |
| COc1ccc(C2CC3(ON2c2ccccc2)C(=O)O[C@@H]2[C@H]3CC[C@H](C)[C@]3(O)C=CC(=O)[C@@]23C)c(OC)c1 (some centres unmarked) [Compound -28] | 99 °C | 11 µM | 7.5 µM | 11 µM |
| COc1cc(C2CC3(ON2c2ccccc2)C(=O)O[C@@H]2[C@H]3CC[C@H](C)[C@]3(O)C=CC(=O)[C@@]23C)cc(OC)c1OC (some centres unmarked) [Compound -29] | 119 °C | 8.6 µM | 5.7 µM | 5.6 µM |
| Cc1cc(C2CC3(ON2c2ccccc2)C(=O)O[C@@H]2[C@H]3CC[C@H](C)[C@]3(O)C=CC(=O)[C@@]23C)cc(C)c1O (some centres unmarked) [Compound -30] | 108 °C | – | – | – |
| C[C@H]1CC[C@@H]2[C@@H](OC(=O)C23CC(c2cccc(Cl)c2)N(c2ccccc2)O3)[C@]2(C)C(=O)C=C[C@@]12O (some centres unmarked) [Compound -31] | 180 °C | 8.2 µM | 6.1 µM | 7.4 µM |
| C[C@H]1CC[C@@H]2[C@@H](OC(=O)C23CC(c2ccccc2[N+](=O)[O-])C(c2ccccc2)O3)[C@]2(C)C(=O)C=C[C@@]12O (some centres unmarked) [Compound -32] | 158 °C | 8.4 µM | 13 µM | 28 µM |
| C[C@H]1CC[C@@H]2[C@@H](OC(=O)C23CN3c2cccc(Cl)c2)[C@]2(C)C(=O)C=C[C@@]12O (some centres unmarked) [Compound -35] | – | 86.1 µM | 48.4 µM | 39.5 µM |
| COc1ccccc1N1CC12C(=O)O[C@@H]1[C@H]2CC[C@H](C)[C@]2(O)C=CC(=O)[C@@]12C (some centres unmarked) [Compound -37] | – | 52 µM | 47.3 µM | – |
| Cc1cccc(N2CC23C(=O)O[C@@H]2[C@H]3CC[C@H](C)[C@@]3(O)C=CC(=O)[C@@]23C)c1 (some centres unmarked) [Compound -38] | – | 61.5 µM | 15 µM | 62.5 µM |
| C[C@H]1CC[C@@H]2[C@@H](OC(=O)C23CN3c2cccc([N+](=O)[O-])c2)[C@]2(C)C(=O)C=C[C@@]12O (some centres unmarked) [Compound -40] | 241 to 242 °C | 10.1 µM | 61 µM | – |
| Cc1ccccc1N1CC12C(=O)O[C@@H]1[C@H]2CC[C@H](C)[C@]2(O)C=CC(=O)[C@@]12C (some centres unmarked) [Compound -43] | – | 12.5 µM | 22 µM | – |
| COc1ccc(C2=NOC3(C2)C(=O)O[C@@H]2[C@H]3CC[C@H](C)[C@]3(O)C=CC(=O)[C@@]23C)cc1OC (some centres unmarked) [Compound -80] | 151 °C | – | 86 µM | 84 µM |
